Reference: patent US20140130208A1, “METHODS AND MEANS TO PRODUCE ABIOTIC STRESS TOLERANT PLANTS” (VIB VZW, priority 2011, published 2014)

What was measured:
Format in all cases: in vivo, Arabidopsis thaliana
[1] = test system: ACC levels in shoots; test: Quantification of ACC in shoots by CE-MS
Protocol: To find out whether differential transcripts reflect changes in hormone levels, we determined concentrations of the ethylene precursor ACC in complete shoots of 9-day-old plants transferred to mannitol. Already 1 h after stress onset, ACC levels were 30% higher in stressed than in control samples, although this was not significant, and by 10 h, the increase was more than 2-fold and significant (FIG. 7B). At the time of analysis, the shoot samples were mainly composed of expanding cells, reflecting the overall importance of ethylene signaling for the response of growing tissues to stress.
Freeze-dried samples were dissolved in 500 μl of methanol, including two internal standard compounds (4 μM methionine sulfone used for compensation of the peak area after capillary electrophoresis-mass spectrometry (CE-MS) analysis and 0.2 μM D4-ACC for quantification of ACC. After addition of 500 μl of chloroform and 200 μl of water, the mixture was vortexed for 3 min and centrifuged at 20,400 g for 3 min at 4° C. The upper layer was evaporated for 30 min at 45° C. by a centrifugal concentrator and then separated into two layers. The upper layer (100-200 μl) was centrifugally filtered through a Millipore 5-kD cutoff filter at 9,100 g for 90 min. […] The final solution (10 μL) was used to quantify the contents of ACC by cation analysis using CE-MS. […]

[2] = test system: proliferating leaf primordia transcriptome; test: ATH1 whole-genome transcript profiling of proliferating leaf primordia
Source text: To obtain a better understanding of the molecular mechanisms inhibiting cell division during stress, we subjected proliferating leaf primordia to whole-genome transcript profiling. […] Selected microarray data could be validated with a nCounter platform containing probes for 100 genes involved in growth, stress, and hormonal regulation. Differential transcripts were used to construct Venn diagrams and were subjected to k-means clustering. […] Subsequently, the differential transcripts were examined with PageMan to calculate the functional overrepresentation of MapMan categories (Thimm et al., 2004; Usadel et al., 2006) and were compared to selected publicly available microarray experiments (see “Materials and Methods”). To explain the reduced cell proliferation rates, cell cycle genes were among the prime suspects. […] Strikingly, the magnitude of change for all of the above-mentioned cell cycle genes was similar (approximately 30%) and occurred only at 24 h (FIG. 6A). Besides the cell cycle-related transcripts, we were particularly interested in genes related to hormonal signaling.
Leaf 3 was harvested from plants at 1.5, 3, 12, and 24 h. Briefly, whole seedlings were harvested in an excess of RNAlater solution (Ambion) and, after overnight storage at 4° C., dissected under a binocular microscope on a cooling plate with precision microscissors. Dissected leaves were transferred to a new tube, frozen in liquid nitrogen, and ground with a Retsch machine and 3-mm metal balls. Samples were obtained from three independent biological experiments and from multiple plates within the experiment.
RNA was extracted with TriZol (Invitrogen) according to the manufacturer's instructions with 4 μg of glycogen as carrier during the precipitation step. RNA samples were subjected to DNA digestion with RNase-free DNase I (Roche) and subsequently cleaned up with the RNeasy Mini Kit (Qiagen).
RNA samples were hybridized to single Affymetrix ATH1 Genome arrays at the VIB Microarray Facility (Leuven, Belgium). Expression data were processed with Robust Multichip Average (RMA) (background correction, normalization, and summarization) as implemented in BioConductor (Irizarry et al., 2003a, 2003b; Gentleman et al., 2004). An alternative cdf (“tinesath1cdf”) was used, in which each probe is uniquely assigned to one transcript (Casneuf et al., 2007) (http://www.bioconductor.org/packages/release/data/experiment/html/tinesath1cdf.html). The BioConductor package Limma was used to identify differentially expressed genes (Smyth, 2004). For comparisons of interest, moderated t statistics were calculated using the eBayes function and P values were corrected for multiple testing for each contrast separately using topTable. False-discovery rate (FDR)-corrected p-value<0.05 was used as a cut-off (Benjamini and Hochberg, 1995).

[3] = test system: CYCB1;1:Dbox-GUS reporter line; test: CYCB1;1:DBox-GUS staining of mitotic activity in leaf 3; settings: 48 h after transfer to 25 mM mannitol or 5 μM ACC
Protocol: Arabidopsis seedlings were germinated and grown on nylon meshes overlaying control medium until 9 days after stratification (DAS), when the third true leaf is fully proliferating (Skirycz et al., 2010), and subsequently transferred to control or mannitol-containing medium (FIGS. 1A to 10). Kinematic analysis was performed, whereby leaves were harvested daily throughout development of leaf 3 (9-20 DAS) and based on drawings of the abaxial epidermis cell number, cell area, number of guard cells and cell division and cell expansion rates were calculated (De Veylder et al., 2001). […] Leaf and plant morphology were not altered by mannitol (FIG. 2C). Cell expansion was also affected by stress and the reduced final leaf area was a combination of fewer and smaller cells (FIG. 2D). The stomatal index, which represents the number of stomata as a fraction of the total number of cells, was reduced as well (FIG. 2E). To learn more about the mechanisms underlying the rapid reduction of cell division upon stress onset, we harvested leaf samples daily after transfer. As a measure of cellular differentiation, the ploidy distribution was examined by flow cytometry. […] In stressed leaves, 4C nuclei started to accumulate approximately one day earlier than in controls at the expense of 2C nuclei (FIG. 3A). […]

[4] = 1.5 h after transfer to 25 mM mannitol
[5] = 3 h after transfer to 25 mM mannitol
[6] = 12 h after transfer to 25 mM mannitol
[7] = 24 h after transfer to 25 mM mannitol

OC[C@@H](O)[C@@H](O)[C@H](O)[C@H](O)CO [mannitol]
increase of ACC levels in stressed versus control shoots ([1]; 1 h after stress onset, not significant): 30%
increase of ACC levels in stressed versus control shoots ([1]; 10 h after stress onset, significant): more than 2 fold
number of down-regulated transcripts [2, 4]: 31
number of up-regulated transcripts [2, 4]: 27
number of down-regulated transcripts [2, 5]: 145
number of up-regulated transcripts [2, 5]: 189
number of down-regulated transcripts [2, 6]: 84
number of up-regulated transcripts [2, 6]: 351
magnitude of change (down-regulation) of cell cycle genes ([2]; 24 h after stress onset): approximately 30%
number of down-regulated transcripts [2, 7]: 622
number of up-regulated transcripts [2, 7]: 886
number of mitotic cells (CYCB1;1:DBox-GUS activity) [3]: reduced number of mitotic cells
